Results on seven compounds are retold here after patent US9828352B2, “Phenyl carbamates and their use as inhibitors of the fatty acid amide hydrolase (FAAH) enzyme and modulators of the D3 dopamine receptor (D3DR)” (FONDAZIONE ISTITUTO ITALIANO DI TECNOLOGIA, priority 2013, dated 2017).

Structures are written as SMILES.

By IC50 is commonly meant the midpoint of a concentration-inhibition curve. In general, EC50 refers to the concentration giving half of the maximal effect. A lower EC50 goes with greater potency.

The target of experiment [1] is T1, rat FAAH (Rattus norvegicus, UniProt P97612).
T1 construct: from tissue; host or cells: male Sprague Dawley rat brain, total homogenate
T1 sequence (P97612 1-579): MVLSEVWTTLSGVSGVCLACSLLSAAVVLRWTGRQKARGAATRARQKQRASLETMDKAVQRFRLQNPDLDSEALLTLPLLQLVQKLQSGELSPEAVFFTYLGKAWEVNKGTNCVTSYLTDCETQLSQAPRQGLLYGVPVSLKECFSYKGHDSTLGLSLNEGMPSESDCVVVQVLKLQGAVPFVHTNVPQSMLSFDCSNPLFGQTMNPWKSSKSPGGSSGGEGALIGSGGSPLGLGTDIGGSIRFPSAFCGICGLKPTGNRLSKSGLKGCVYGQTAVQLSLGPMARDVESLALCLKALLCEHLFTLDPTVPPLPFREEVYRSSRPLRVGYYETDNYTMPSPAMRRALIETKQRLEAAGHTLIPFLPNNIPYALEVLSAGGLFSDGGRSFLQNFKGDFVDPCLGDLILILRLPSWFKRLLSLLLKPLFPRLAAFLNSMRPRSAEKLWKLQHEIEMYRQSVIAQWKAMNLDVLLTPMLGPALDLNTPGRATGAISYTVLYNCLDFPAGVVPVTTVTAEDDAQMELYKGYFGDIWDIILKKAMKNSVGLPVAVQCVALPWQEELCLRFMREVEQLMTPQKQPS
Kind of experiment: Rat Fatty Acid Amide Hydrolase (FAAH) assay, rat brain homogenate, [3H]-anandamide. The class given is biochemical. Particulars: 3 separate experiments, each in duplicate. How it is done: Rat Fatty Acid Amide Hydrolase (FAAH) Assay
Male Sprague Dawley rat brains were homogenized in a potter in 20 mM Tris-HCl pH7.4, 0.32M sucrose, protein concentration was measured and samples aliquot stored at −80° C. until use.
FAAH activity was measured using 50 μg of total rat brain homogenate pre-incubated for 10 minutes at 37° C. in 445.5 μL of assay buffer (50 mM Tris-HCl pH7.4, 0.05% Fatty acid-free BSA) with 4.5 μL of inhibitor at appropriate concentration in DMSO, or DMSO alone to measure FAAH total activity. The blank (no activity sample) was prepared with 445.5 μL of assay buffer and 4.5 μL of DMSO without the 50 μg of total rat brain homogenate.
After 10 minutes of pre-incubation, the reaction was started by the addition of 50 μL of substrate for 30 min at 37° C. The substrate is prepared in assay buffer in order to achieve the final concentration of 1 μM Arachidonoyl-ethanolamide (N.90050, Cayman Chemical) and 0.6 nM Anandamide [ethanolamine-1-^3H] (American Radiolabeled Chemicals Inc., ART.0626, 1 mCi/ml, specific activity 60 Ci/mmol).
The reaction was stopped by with the addition of cold 1:1 CHCl3/Methanol. After 10 minutes of centrifugation (845×g at 4° C.) 600 μL of the aqueous phase was transferred into scintillation vials previously filled with 3 mL of scintillation fluid (ULTIMA GOLD, Cat. 6013329, Perkin Elmer Inc.).
Radioactivity was measured by liquid scintillation counting (Microbeta2 Lumijet, Perkin Elmer Inc.).
(§1) EC50 or IC50 values (concentrations causing half-maximal response or inhibition of control agonist response) were determined by non-linear regression analysis of the Log [concentration]/response curves generated with mean replicate values using a four parameter Hill equation curve fitting with GraphPad Prism 5 (GraphPad Software Inc., CA—USA).

Experiment [2] deals with T2, human FAAH-1 (Homo sapiens, UniProt O00519).
T2 construct: expressed in transfected cells; host or cells: Hek293 cells stably transfected with human FAAH-1; membrane preparation
T2 sequence (O00519 1-579): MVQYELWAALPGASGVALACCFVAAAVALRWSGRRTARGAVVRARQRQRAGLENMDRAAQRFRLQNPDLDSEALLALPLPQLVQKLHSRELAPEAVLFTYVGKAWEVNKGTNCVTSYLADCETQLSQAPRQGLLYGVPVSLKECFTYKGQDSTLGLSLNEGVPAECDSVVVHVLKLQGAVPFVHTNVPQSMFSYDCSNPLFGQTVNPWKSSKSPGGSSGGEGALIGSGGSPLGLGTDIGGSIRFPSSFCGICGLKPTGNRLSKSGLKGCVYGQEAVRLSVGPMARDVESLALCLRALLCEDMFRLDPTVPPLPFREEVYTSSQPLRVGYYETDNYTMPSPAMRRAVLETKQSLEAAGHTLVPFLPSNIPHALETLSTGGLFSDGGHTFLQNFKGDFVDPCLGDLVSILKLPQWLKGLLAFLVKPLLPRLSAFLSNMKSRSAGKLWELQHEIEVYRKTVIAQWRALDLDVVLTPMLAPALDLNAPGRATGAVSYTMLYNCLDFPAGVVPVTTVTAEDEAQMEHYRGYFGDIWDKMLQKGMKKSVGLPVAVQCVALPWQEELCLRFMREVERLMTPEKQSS
Kind of experiment: Human recombinant Fatty Acid Amide Hydrolase-1 (FAAH-1) fluorescent assay, Hek293-hFAAH-1 membranes. The class given is biochemical. The conditions noted are these: 3 separate experiments, each in triplicate. How it is done:
Human Recombinant Fatty Acid Amide Hydrolase-1 (FAAH-1) Fluorescent Assay
Hek293 cells stably transfected with human FAAH-1 were maintained in DMEM containing 10% FBS, 1% pen/strep and 500 μg/mL G418 to maintain selective pressure. Cells were scraped off with cold PBS1× pH7.4 from plates and collected by centrifugation (500 g, 10 minutes, 4° C.); cells pellets were re-suspended in homogenizing buffer (20 mM Tris-HCl pH7.4, 0.32M sucrose), disrupted by sonication (10 pulses, 5 times) and centrifuged at 800×g for 15 minutes at 4° C.; the resultant supernatants collected were then centrifuged at 105,000×g for 1 hr at 4° C. and membranes pellets were re-suspended in PBS1× pH7.4.
Protein concentration was measured and samples aliquot stored at −80° C. until use.
The blank (no activity) was prepared using 180 μL of assay buffer without Hek293-hFAAH-1 membrane preparation and 10 μL of DMSO.
After 50 minutes of pre-incubation of compounds with the enzyme at 37° C., the reaction was started by the addition of 10 μL of substrate (AMC Arachidonyl Amide, N.10005098, Cayman Chemical) for 30 min at 37° C. The substrate is prepared in Ethanol in order to achieve the final concentration of 2 μM.
Fluorescence was detected with Tecan Infinite M200 nanoquant (Tecan Group Ltd.) at an excitation wavelength 350 nm and an emission wavelength 460 nm.
as §1

For experiment [3], the target named is T3, human-D3R (Homo sapiens, UniProt P35462).
T3 construct: expressed in transfected cells; host or cells: CHO cell line stably transfected with human D3R
The experiment in a line: D3 Dopamine Receptor (D3dR) cellular assay, cAMP HTRF functional assay in human-D3R expressing CHO cells. The class given is cell-based. On the procedure: D3 Dopamine Receptor (D3dR) Cellular Assay
Activity on D3R was tested with a cAMP functional assay on a stably transfected human-D3R expressing CHO cell line. On the day of the assay performance the cells were washed twice with PBS (w/o calcium and magnesium) and dislodged with a cell scraper, transferred to PBS, centrifuged and re-suspended in HBSS (w/o calcium and magnesium), supplemented with 1 g/L glucose and […] IBMX. The cell suspension was seeded on a 384 well plate (Greiner) and the assay was performed by adding compounds either test compounds alone (for agonist activity), or with test compound after a pre-incubation with 10 nM Dopamine as a stimulant (for antagonistic activity). After incubation (30 min at RT) the cell stimulation was stopped by adding the detecting reagents (cAMP-XL665 and anti-cAMP cryptate) diluted in lysis buffer. The signal was quantified by Homogenous Time-Resolved Fluorescence (HTRF) on a Perkin Elmer Envision plate reader after one hour of incubation at RT.
as §1
In general terms: In TR-FRET formats the signal depends on donor and acceptor labels being close together.

T3 sequence (P35462 whole entry): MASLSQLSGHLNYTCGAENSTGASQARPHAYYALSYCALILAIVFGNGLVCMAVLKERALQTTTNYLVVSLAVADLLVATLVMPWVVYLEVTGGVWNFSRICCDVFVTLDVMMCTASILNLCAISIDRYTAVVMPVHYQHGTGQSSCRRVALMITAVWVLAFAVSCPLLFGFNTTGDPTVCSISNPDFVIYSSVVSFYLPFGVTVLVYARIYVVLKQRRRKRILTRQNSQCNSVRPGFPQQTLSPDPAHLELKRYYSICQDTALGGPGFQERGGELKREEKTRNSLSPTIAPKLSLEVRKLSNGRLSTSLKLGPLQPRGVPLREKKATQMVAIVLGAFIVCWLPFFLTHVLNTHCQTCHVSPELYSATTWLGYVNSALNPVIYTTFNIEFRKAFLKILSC

In experiment [1], `COc1ccccc1N1CCN(CCCCNC(=O)Oc2cccc(-c3cccc(C(N)=O)c3)c2)CC1` [Example 1, [3-(3-carbamoylphenyl)phenyl] N-[4-[4-(2-methoxyphenyl)piperazin-1-yl]butyl] carbamate] registered an IC50 of 0.94 nM. On the same count and under the same terms, in the case of `NC(=O)c1cccc(-c2cccc(OC(=O)NCCCCN3CCN(c4cccc(Cl)c4Cl)CC3)c2)c1` [Example 2, [3-(3-carbamoylphenyl)phenyl] N-[4-[4-(2,3-dichlorophenyl)piperazin-1-yl]butyl] carbamate] it was 0.3 nM. For `NC(=O)c1cccc(-c2cccc(OC(=O)NCCCN3CCN(c4cccc(Cl)c4Cl)CC3)c2)c1` [Example 3, [3-(3-carbamoylphenyl)phenyl] N-[3-[4-(2,3-dichlorophenyl)piperazin-1-yl]propyl]carbamate], in experiment [1], the IC50 is 0.11 nM. Still for that read-out and setting: with `NC(=O)c1cccc(-c2cccc(OC(=O)NCCCN3CCN(c4ccccc4)CC3)c2)c1` [Example 4, [3-(3-carbamoylphenyl)phenyl] N-[3-(4-phenylpiperazin-1-yl)propyl]carbamate] the figure was 0.32 nM. For the compound `O=C(NCCCN1CCN(c2ccccc2)CC1)Oc1cccc(-c2ccccc2)c1` [Example 5, (3-phenylphenyl) N-[3-(4-phenylpiperazin-1-yl)propyl]carbamate], the values for the IC50 in experiment [1] and in experiment [2] were 3 nM and 3.4 nM, respectively. Moreover, the Emax in experiment [3] (CHO, 0.5 h, % of 300 nM Dopamine response, read-out: Dopamine D3 % of Agonist Activity) was determined as 89.7%. Besides, the EC50 in experiment [3] (cAMP assay, CHO human-D3R, one experiment in duplicate) came to 13 nM. In turn, `NC(=O)c1cccc(-c2ccc(OC(=O)NCCCN3CCN(c4cccc(Cl)c4Cl)CC3)cc2)c1` [Example 6, [4-(3-carbamoylphenyl)phenyl] N-[3-[4-(2,3-dichlorophenyl)piperazin-1-yl]propyl]carbamate] registered a concentration for half-maximal inhibition (IC50) in experiment [1] of 1.5 nM. The same measure, in the same setting: in the case of `NC(=O)c1cccc(-c2ccc(OC(=O)NCCCCN3CCN(c4cccc(Cl)c4Cl)CC3)cc2)c1` [Example 7, [4-(3-carbamoylphenyl)phenyl] N-[4-[4-(2,3-dichlorophenyl)piperazin-1-yl]butyl]carbamate] it was 0.72 nM.
